ChEMBL document CHEMBL1124522, “Synthesis and antitumor activity of 5-deaza-5,6,7,8-tetrahydrofolic acid and its N10-substituted analogues” (J Med Chem, 1989)
Several values for one entry are separate records, joined by “and”; a condition that tells them apart may be missing. Equal entries are not always repeated.

What was measured:
[1] = tested on: CCRF-CEM; test: Compound was tested for its antitumor activity against human lymphoblastic leukemic cells(CCRF-CEM) in vitro; type: functional, cell-based
[2] = target: T1, Folylpolyglutamate synthase, mitochondrial (Mus musculus) (UniProt P48760); test: Apparent catalytic rate folyl-poly-glutamate synthetase
T1 sequence (whole entry): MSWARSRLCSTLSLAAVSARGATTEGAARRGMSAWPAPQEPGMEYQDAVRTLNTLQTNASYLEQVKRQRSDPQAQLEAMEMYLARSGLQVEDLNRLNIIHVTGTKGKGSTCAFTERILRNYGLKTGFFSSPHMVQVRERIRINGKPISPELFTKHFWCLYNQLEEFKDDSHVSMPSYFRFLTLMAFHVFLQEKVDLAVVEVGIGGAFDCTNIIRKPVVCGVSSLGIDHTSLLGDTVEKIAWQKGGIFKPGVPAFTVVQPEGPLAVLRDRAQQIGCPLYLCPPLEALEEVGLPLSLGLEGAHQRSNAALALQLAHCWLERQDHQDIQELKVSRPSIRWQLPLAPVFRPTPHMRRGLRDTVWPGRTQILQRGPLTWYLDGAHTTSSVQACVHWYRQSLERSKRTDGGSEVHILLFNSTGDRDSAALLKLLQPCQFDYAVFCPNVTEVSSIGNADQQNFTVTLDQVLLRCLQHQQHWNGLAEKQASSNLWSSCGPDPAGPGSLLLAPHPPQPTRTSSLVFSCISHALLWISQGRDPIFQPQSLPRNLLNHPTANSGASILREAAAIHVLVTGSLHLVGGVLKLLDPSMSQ

[3] = target: T1, Folylpolyglutamate synthase, mitochondrial (Mus musculus); test: First order catalytic rate folyl-poly-glutamate synthetase
[4] = In vivo antitumor avctivity (Toxic/total) at dose 25 mg/kg in C3H mice with transplantable murine solid tumor 6C3HED lymphosarcoma; Compound was tested on 10 mice.; type: functional, Mus musculus
[5] = tested on: 6C3HED; test: Percent inhibition against 6C3HED lymphosarcoma at dose 100 mg/kg in C3H mice; type: functional, Mus musculus
[6] = Percent inhibition against C3H mammary adenocarcinoma at dose 50 mg/kg in C3H mice;Compound was toxic.; type: ADME, organism-based; design: dose 50 mg/kg; settings: mouse, in vivo
[7] = In vivo anti tumor activity (toxic/total) at dose 200 mg/kg in C3H mice with transplantable murine solid tumor 6C3HED lymphosarcoma, doses administered intraperitoneally on days 1,3,5,7 and 9;Compound was tested on 10 mice.; type: functional, Mus musculus; settings: route intraperitoneal
[8] = tested on: 6C3HED; test: Percent inhibition against 6C3HED lymphosarcoma at dose 200 mg/kg in C3H mice; type: functional; settings: Mus musculus
[9] = In vivo anti tumor activity (toxic/total) at dose 50 mg/kg in C3H mice with transplantable murine solid tumor 6C3HED lymphosarcoma, doses administered intraperitoneally on days 1,3,5,7 and 9;Compound was tested on 10 mice.; type: functional, Mus musculus; settings: route intraperitoneal
[10] = tested on: 6C3HED; test: Percent inhibition against 6C3HED lymphosarcoma at dose 25 mg/kg in C3H mice; type: functional, Mus musculus
[11] = In vivo antitumor activity (toxic/total) at dose 25 mg/kg in C3H mice with transplantable murine solid tumor C3H mammary adenocarcinoma; Compound was tested on 10 mice.; type: functional, Mus musculus
[12] = Percent inhibition against C3H mammary adenocarcinoma at dose 25 mg/kg in C3H mice;Compound was toxic.; type: ADME, organism-based; design: dose 25 mg/kg; settings: mouse, in vivo
[13] = Percent inhibition against C3H mammary adenocarcinoma at dose 100 mg/kg administered ip on days 1,3,5,7 and 9 in C3H mice; type: functional; settings: Mus musculus, route intraperitoneal
[14] = In vivo antitumor activity (toxic/total) at dose 12.5 mg/kg in C3H mice with transplantable murine solid tumor C3H mammary adenocarcinoma; Compound was tested on 10 mice.; type: functional, Mus musculus
[15] = In vivo antitumor activity (toxic/total) at dose 50 mg/kg in C3H mice with transplantable murine solid tumor C3H mammary adenocarcinoma; Compound was tested on 10 mice.; type: functional, Mus musculus
[16] = Percent inhibition against C3H mammary adenocarcinoma at dose 25 mg/kg administered ip on days 1,3,5,7 and 9 in C3H mice; type: functional; settings: Mus musculus, route intraperitoneal
[17] = In vivo antitumor activity (toxic/total) at dose 6.25 mg/kg in C3H mice with transplantable murine solid tumor C3H mammary adenocarcinoma; Compound was tested on 10 mice.; type: functional, Mus musculus
[18] = Percent inhibition against C3H mammary adenocarcinoma at dose 50 mg/kg administered ip on days 1,3,5,7 and 9 in C3H mice; type: functional; settings: Mus musculus, route intraperitoneal
[19] = In vivo antitumor avctivity (Toxic/total) at dose 6 mg/kg in C3H mice with transplantable murine solid tumor 6C3HED lymphosarcoma; Compound was tested on 10 mice.; type: functional, Mus musculus
[20] = In vivo anti tumor activity (toxic/total) at dose 100 mg/kg in C3H mice with transplantable murine solid tumor 6C3HED lymphosarcoma, doses administered intraperitoneally on days 1,3,5,7 and 9;Compound was tested on 9 mice.; type: functional, Mus musculus; settings: route intraperitoneal
[21] = In vivo antitumor activity (toxic/total) at dose 12.5 mg/kg in C3H mice with transplantable murine solid tumor C3H mammary adenocarcinoma, doses administered intraperitoneally on days 1,3,5,7 and 9;Compound was tested on 10 mice.; type: functional, Mus musculus; settings: route intraperitoneal
[22] = tested on: 6C3HED; test: Percent inhibition against 6C3HED lymphosarcoma at dose 50 mg/kg in C3H mice; type: functional, Mus musculus
[23] = In vivo antitumor avctivity (Toxic/total) at dose 12.5 mg/kg in C3H mice with transplantable murine solid tumor 6C3HED lymphosarcoma; Compound was tested on 10 mice.; type: functional, Mus musculus
[24] = In vivo anti tumor activity (toxic/total) at dose 12.5 mg/kg in C3H mice with transplantable murine solid tumor 6C3HED lymphosarcoma, doses administered intraperitoneally on days 1,3,5,7 and 9;Compound was tested on 10 mice.; type: functional, Mus musculus; settings: route intraperitoneal
[25] = In vivo anti tumor activity (toxic/total) at dose 25 mg/kg in C3H mice with transplantable murine solid tumor 6C3HED lymphosarcoma, doses administered intraperitoneally on days 1,3,5,7 and 9;Compound was tested on 10 mice.; type: functional, Mus musculus; settings: route intraperitoneal
[26] = In vivo antitumor avctivity (Toxic/total) at dose 100 mg/kg in C3H mice with transplantable murine solid tumor 6C3HED lymphosarcoma; Compound was tested on 10 mice.; type: functional, Mus musculus
[27] = Percent inhibition against C3H mammary adenocarcinoma at dose 6.25 mg/kg in C3H mice; type: functional; settings: Mus musculus
[28] = In vivo antitumor activity (toxic/total) at dose 6.25 mg/kg in C3H mice with transplantable murine solid tumor C3H mammary adenocarcinoma, doses administered intraperitoneally on days 1,3,5,7 and 9;Compound was tested on 10 mice.; type: functional, Mus musculus; settings: route intraperitoneal
[29] = In vivo antitumor avctivity (Toxic/total) at dose 50 mg/kg in C3H mice with transplantable murine solid tumor 6C3HED lymphosarcoma; Compound was tested on 10 mice.; type: functional, Mus musculus
[30] = In vivo antitumor activity (toxic/total) at dose 50 mg/kg in C3H mice with transplantable murine solid tumor C3H mammary adenocarcinoma, doses administered intraperitoneally on days 1,3,5,7 and 9;Compound was tested on 10 mice.; type: functional, Mus musculus; settings: route intraperitoneal
[31] = In vivo antitumor activity (toxic/total) at dose 100 mg/kg in C3H mice with transplantable murine solid tumor C3H mammary adenocarcinoma, doses administered intraperitoneally on days 1,3,5,7 and 9;Compound was tested on 10 mice.; type: functional, Mus musculus; settings: route intraperitoneal
[32] = tested on: 6C3HED; test: Percent inhibition against 6C3HED lymphosarcoma at dose 6 mg/kg in C3H mice; type: functional; settings: Mus musculus
[33] = tested on: 6C3HED; test: Percent inhibition against 6C3HED lymphosarcoma at dose 12.5 mg/kg in C3H mice; type: functional, Mus musculus
[34] = Percent inhibition against C3H mammary adenocarcinoma at dose 6.25 mg/kg administered ip on days 1,3,5,7 and 9 in C3H mice; type: functional; settings: Mus musculus, route intraperitoneal
[35] = Percent inhibition against C3H mammary adenocarcinoma at dose 12.5 mg/kg administered ip on days 1,3,5,7 and 9 in C3H mice; type: functional; settings: Mus musculus, route intraperitoneal
[36] = In vivo antitumor activity (toxic/total) at dose 25 mg/kg in C3H mice with transplantable murine solid tumor C3H mammary adenocarcinoma, doses administered intraperitoneally on days 1,3,5,7 and 9;Compound was tested on 10 mice.; type: functional, Mus musculus; settings: route intraperitoneal
[37] = target: T1, Folylpolyglutamate synthase, mitochondrial (Mus musculus); test: First order catalytic rate constants (k) was determined from mouse liver Folyl-polyglutamate synthase
[38] = target: T1, Folylpolyglutamate synthase, mitochondrial (Mus musculus); test: Apparent catalytic rate constants (Km) owas determined from mouse liver Folyl-polyglutamate synthase
[39] = substrate: Nc1nc(=O)c2nc(CNc3ccc(C(=O)N[C@@H](CCC(=O)O)C(=O)O)cc3)cnc2[nH]1; test: Catalytic rate folyl-poly-glutamate synthetase
[40] = substrate: Nc1nc(O)c2c(n1)NCC(CNc1ccc(C(=O)N[C@@H](CCC(=O)O)C(=O)O)cc1)C2; test: (§1) Catalytic rate constants (Vmax) was determined from mouse liver Folyl-polyglutamate synthase
[41] = substrate: Nc1nc2c(c(=O)[nH]1)C[C@@H](CCc1ccc(C(=O)N[C@@H](CCC(=O)O)C(=O)O)cc1)CN2; test: as §1
[42] = substrate: Nc1nc(N)c2nc(CNc3ccc(C(=O)N[C@@H](CCC(=O)O)C(=O)O)cc3)cnc2n1; test: as §1

Molecule: Nc1nc(O)c2c(n1)NCC(CNc1ccc(C(=O)N[C@@H](CCC(=O)O)C(=O)O)cc1)C2 (stereo in doubt; 7a-A)
- IC50 ([1]; ccrf-cem): 6 nM

Molecule: CC(=O)N(CC1CNc2nc(N)nc(O)c2C1)c1ccc(C(=O)N[C@@H](CCC(=O)O)C(=O)O)cc1 (stereo partly specified)
- IC50 ([1]; Homo sapiens, CCRF-CEM): 600 nM

Molecule: Nc1nc(=O)c2nc(CNc3ccc(C(=O)N[C@@H](CCC(=O)O)C(=O)O)cc3)cnc2[nH]1
- Km app [2]: 140 µM
- k [3]: 1

Molecule: Nc1nc(O)c2c(n1)NCC(CNc1ccc(C(=O)N[C@@H](CCC(=O)O)C(=O)O)cc1)C2 (stereo in doubt; 7a)
- tox/total [4]: 3
- Inhibition ([5]; 100 mg/kg): 93%
- inhibition in vivo at 100 mg/kg ([5]; Mus musculus, 6C3HED): 100%
- Inhibition [6]: Toxic
- tox/total [7]: 3
- inhibition in vivo at 200 mg/kg [8]: 98%
- tox/total [9]: 0
- Inhibition [10]: 100% and 51%
- tox/total [11]: 10
- Inhibition [12]: Toxic
- inhibition in vivo at 100 mg/kg [13]: 94%
- tox/total [14]: 10
- tox/total [15]: 10
- inhibition in vivo at 25 mg/kg [16]: 64%
- tox/total [17]: 3
- inhibition in vivo at 50 mg/kg [18]: 81%
- tox/total [19]: 0
- tox/total [20]: 0
- tox/total [21]: 0
- Inhibition [22]: 100% and 74%
- tox/total [23]: 1
- tox/total [24]: 0
- tox/total [25]: 0
- tox/total [26]: 9
- inhibition in vivo at 6.25 mg/kg [27]: 96%
- tox/total [28]: 0
- tox/total [29]: 6
- tox/total [30]: 0
- tox/total [31]: 0
- inhibition in vivo at 6 mg/kg [32]: 77%
- Inhibition [33]: 100% and 34%
- inhibition in vivo at 6.25 mg/kg [34]: 50%
- inhibition in vivo at 12.5 mg/kg [35]: 61%
- IC50 ([1]; Homo sapiens, CCRF-CEM): 10 nM
- tox/total [36]: 0

Molecule: Nc1nc2c(c(=O)[nH]1)C[C@@H](CCc1ccc(C(=O)N[C@@H](CCC(=O)O)C(=O)O)cc1)CN2 (stereo in doubt; form 3) [LOMETREXOL]
- IC50 ([1]; ccrf-cem): 20 nM

Molecule: Nc1nc(N)c2nc(CNc3ccc(C(=O)N[C@@H](CCC(=O)O)C(=O)O)cc3)cnc2n1
- k [37]: 10.1
- Km app [38]: 21 µM

B1: Folylpolyglutamate synthase, mitochondrial (Mus musculus), P48760 (protein)
chain: MSWARSRLCSTLSLAAVSARGATTEGAARRGMSAWPAPQEPGMEYQDAVRTLNTLQTNASYLEQVKRQRSDPQAQLEAMEMYLARSGLQVEDLNRLNIIHVTGTKGKGSTCAFTERILRNYGLKTGFFSSPHMVQVRERIRINGKPISPELFTKHFWCLYNQLEEFKDDSHVSMPSYFRFLTLMAFHVFLQEKVDLAVVEVGIGGAFDCTNIIRKPVVCGVSSLGIDHTSLLGDTVEKIAWQKGGIFKPGVPAFTVVQPEGPLAVLRDRAQQIGCPLYLCPPLEALEEVGLPLSLGLEGAHQRSNAALALQLAHCWLERQDHQDIQELKVSRPSIRWQLPLAPVFRPTPHMRRGLRDTVWPGRTQILQRGPLTWYLDGAHTTSSVQACVHWYRQSLERSKRTDGGSEVHILLFNSTGDRDSAALLKLLQPCQFDYAVFCPNVTEVSSIGNADQQNFTVTLDQVLLRCLQHQQHWNGLAEKQASSNLWSSCGPDPAGPGSLLLAPHPPQPTRTSSLVFSCISHALLWISQGRDPIFQPQSLPRNLLNHPTANSGASILREAAAIHVLVTGSLHLVGGVLKLLDPSMSQ
- Vmax [39]: 1
- Vmax [40]: 1.3
- Vmax [41]: 1.26
- Vmax [42]: 1.59
